# Where two headings read alike, the source gives them in different places.
# Experiments:
# [1] = tested on: formalin test in rats; assay: Formalin test in rats (automated flinch detection); format: in vivo; settings: rat; for Phase 1 paw flinches: Phase I (0-9 mins); for Total Phase 2 paw flinches: Phase II (10-60 mins); for Phase 2a paw flinches: Phase IIA (10-40 mins); for Phase 2b paw flinches: Phase IIB (41-60 mins)
# Protocol: The formalin test in rats was performed as previously described (McNamara, 2007. Proc. Natl. Acad. Sci., vol 104, page 13525) using an automated flinch-detecting system (T. Yaksh, University of California at San Diego, La Jolla, Calif.). On the day of testing, a small metal band (0.5 g) was loosely placed around the right hind paw of a male Sprague-Dawley rat (average weight, ˜250 g). The rats were allowed to acclimate to a Plexiglas chamber for at least 30 min before testing. Formalin was then injected (50 μl of 2.5% formalin, diluted in saline) into the dorsal surface of the right hind paw of the rat, and the animal was put into a chamber of the automated formalin apparatus where movement of the formalin-injected paw was recorded. The number of paw flinches per minute was tallied for the next 60 minutes. The time interval phases were defined as follows: Phase I (0-9 mins), Phase II (10-60 mins), Phase IIA (10-40 mins), and Phase IIB (41-60 mins). The following compounds were administered 1 hour prior to formalin administration. Compound 52 from Table 1 was administered by oral gavage in 4% DMSO, 10% Solutol, 86% H2O. Gabapentin was administered subcutaneously in 0.9% NaCl (aq). 4.
# [2] = biological target: hNav1.7 (Homo sapiens (Human), UniProt Q15858); assay: Nav1.7 potency, Patchliner automated patch clamp; format: cell-based; settings: automated patchclamp
# Protocol: The generation of a HEK 293F cell line stably expressing human Nav1.7/Navβ1 was achieved by co-transfecting human SCN9A and human SCN1B cDNAs, subcloned into plasmid vectors, utilizing standard transfection techniques. Clones were selected using appropriate selection agents (0.3 mg/mL Zeocin and 0.8 mg/mL Geneticin) and maintained in Dulbecco's Modified Eagle medium, 10% fetal bovine serum, 1% non-essential amino acids to ˜80% confluence at 37° C. in a humidified incubator with 95% atmosphere and 5% CO2.
# In some cases, the potency of compounds was measured using either the Patchliner automated patch clamp platform (Nanion) or manual patch clamp techniques. Both approaches allowed the compounds to be characterized based upon the ability of a compound to modulate use- and/or state-dependence. The potency data is tabulated in Table 3 and is represented by eight data fields. The first four fields represent potency data measured with the Patchliner automated platform under varying use- and state-dependent electrophysiology protocols similar to the Patch express protocols detailed above. The first data column describes the potency of compounds when the Nav1.7 channel is being repetitively activated at a 7 Hz hyperpolarization frequency (Table 3: hNav1.7: IC50 of inward current block at 7 Hz, Automated patchclamp). The second data column represents the potency at which 50% of the initial hyperpolarization pulse is inhibited by the compounds (Table 3: hNav1.7: IC50 of P1 block, Automated patchclamp). The third data column details the potency of compounds in their ability to block 50% of Nav1.7 channels when these channels are induced into the slow inactivated state (Table 3: hNav1.7: IC50 of slow inactivation block, Automated patchclamp). […] The next three data fields describe the data generated from manual patchclamp electrophysiology measurements using similar methods to those employed for automated patchclamp studies. […] The last column characterizes the state-dependence of compound inhibition. […]
# [3] = 3 mg/kg oral gavage 1 hour prior to formalin
# [4] = 10 mg/kg oral gavage 1 hour prior to formalin
# [5] = 30 mg/kg oral gavage 1 hour prior to formalin
# [6] = 100 mg/kg SC 1 hour prior to formalin
# hNav1.7, sequence (Q15858 whole entry): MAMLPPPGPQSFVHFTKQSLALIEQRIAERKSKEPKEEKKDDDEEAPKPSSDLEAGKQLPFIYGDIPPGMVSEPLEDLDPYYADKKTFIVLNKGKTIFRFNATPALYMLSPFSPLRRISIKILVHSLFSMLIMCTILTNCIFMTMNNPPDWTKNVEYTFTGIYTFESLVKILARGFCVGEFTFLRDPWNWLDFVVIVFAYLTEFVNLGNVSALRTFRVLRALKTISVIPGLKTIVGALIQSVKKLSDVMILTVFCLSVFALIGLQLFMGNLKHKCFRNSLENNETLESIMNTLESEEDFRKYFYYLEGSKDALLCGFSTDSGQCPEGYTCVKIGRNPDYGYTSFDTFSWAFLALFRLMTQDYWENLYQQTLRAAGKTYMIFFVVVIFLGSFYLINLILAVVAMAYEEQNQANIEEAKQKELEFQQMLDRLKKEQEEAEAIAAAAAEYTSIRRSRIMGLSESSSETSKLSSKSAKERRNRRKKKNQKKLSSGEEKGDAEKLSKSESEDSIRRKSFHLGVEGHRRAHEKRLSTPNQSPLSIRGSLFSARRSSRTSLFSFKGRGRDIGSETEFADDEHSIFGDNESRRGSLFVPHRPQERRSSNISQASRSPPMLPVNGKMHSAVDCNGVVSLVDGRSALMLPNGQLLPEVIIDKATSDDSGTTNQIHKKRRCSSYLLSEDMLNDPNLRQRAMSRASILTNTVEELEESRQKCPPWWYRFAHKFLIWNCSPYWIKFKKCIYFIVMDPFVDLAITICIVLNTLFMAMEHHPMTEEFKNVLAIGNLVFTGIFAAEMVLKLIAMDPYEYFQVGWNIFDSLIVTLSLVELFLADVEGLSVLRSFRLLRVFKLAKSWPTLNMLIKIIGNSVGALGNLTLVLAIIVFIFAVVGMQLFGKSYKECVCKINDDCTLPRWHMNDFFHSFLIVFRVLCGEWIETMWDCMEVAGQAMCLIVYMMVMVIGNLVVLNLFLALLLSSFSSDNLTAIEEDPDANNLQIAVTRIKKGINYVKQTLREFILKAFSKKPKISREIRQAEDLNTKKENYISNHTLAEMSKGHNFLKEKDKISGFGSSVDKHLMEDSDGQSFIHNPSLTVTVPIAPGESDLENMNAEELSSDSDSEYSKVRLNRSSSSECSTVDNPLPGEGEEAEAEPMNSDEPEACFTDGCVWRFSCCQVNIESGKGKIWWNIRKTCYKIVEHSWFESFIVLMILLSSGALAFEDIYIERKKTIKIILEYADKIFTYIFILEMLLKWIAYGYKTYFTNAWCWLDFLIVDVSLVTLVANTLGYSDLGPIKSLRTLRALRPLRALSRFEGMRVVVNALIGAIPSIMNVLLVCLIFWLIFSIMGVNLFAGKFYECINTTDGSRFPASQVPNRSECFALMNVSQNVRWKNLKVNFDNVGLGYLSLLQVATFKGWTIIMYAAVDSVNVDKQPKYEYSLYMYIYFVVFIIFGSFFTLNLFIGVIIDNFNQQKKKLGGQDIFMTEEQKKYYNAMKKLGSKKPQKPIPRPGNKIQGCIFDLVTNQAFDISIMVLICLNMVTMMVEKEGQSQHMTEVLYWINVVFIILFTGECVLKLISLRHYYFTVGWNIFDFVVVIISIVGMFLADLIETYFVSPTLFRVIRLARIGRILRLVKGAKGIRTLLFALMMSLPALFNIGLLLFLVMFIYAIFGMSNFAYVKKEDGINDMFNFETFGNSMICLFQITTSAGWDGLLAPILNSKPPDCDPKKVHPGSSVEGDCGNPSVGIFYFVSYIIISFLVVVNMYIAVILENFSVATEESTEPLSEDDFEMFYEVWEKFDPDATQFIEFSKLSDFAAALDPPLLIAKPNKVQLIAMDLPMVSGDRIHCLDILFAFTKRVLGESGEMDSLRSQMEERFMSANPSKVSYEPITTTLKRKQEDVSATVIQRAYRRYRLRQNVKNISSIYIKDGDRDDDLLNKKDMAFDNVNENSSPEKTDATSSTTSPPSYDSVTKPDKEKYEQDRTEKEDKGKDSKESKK
# hNav1.7, sequence (Q07699 19-218 partner): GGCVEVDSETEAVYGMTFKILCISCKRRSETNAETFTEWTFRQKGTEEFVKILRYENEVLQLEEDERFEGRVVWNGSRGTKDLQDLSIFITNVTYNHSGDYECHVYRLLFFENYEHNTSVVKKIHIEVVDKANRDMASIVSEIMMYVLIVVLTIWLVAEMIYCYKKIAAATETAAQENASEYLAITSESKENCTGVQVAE
structure (smiles),measurement,setting,value
"NC1(c2nc3cc(C(F)(F)F)cc(C(F)(F)F)c3[nH]2)Cc2ccccc2C1 [Compound 52, 2-(4,6-bis(trifluoromethyl)-1H-benzo[d]imidazol-2-yl)-2,3-dihydro-1H-inden-2-amine]",Phase 1 paw flinches,[1]; [3],345 ± 75
same,Total Phase 2 paw flinches,[1]; [3],1365 ± 174
same,Phase 2a paw flinches,[1]; [3],988 ± 139
same,Phase 2b paw flinches,[1]; [3],377 ± 79
same,Phase 1 paw flinches,[1]; [4],315 ± 58
same,Total Phase 2 paw flinches,[1]; [4],962 ± 189
same,Phase 2a paw flinches,[1]; [4],758 ± 199
same,Phase 2b paw flinches,[1]; [4],204 ± 66
same,Phase 1 paw flinches,[1]; [5],333 ± 75
same,Total Phase 2 paw flinches,[1]; [5],853 ± 259
same,Phase 2a paw flinches,[1]; [5],706 ± 261
same,Phase 2b paw flinches,[1]; [5],147 ± 101
"N[C@H](Cc1cccc(C(F)(F)F)c1)C(=O)NCc1nc2c(C(F)(F)F)cc(C(F)(F)F)cc2[nH]1 [Compound 75, (R)-2-amino-N-((4,6-bis(trifluoromethyl)-1H-benzo[d]imidazol-2-yl)methyl)-3-(3-(trifluoromethyl)phenyl) propanamide]",IC50,"[2]; 7 Hz, read-out: Nav1.7 IC50 INWARD CURRENT BLOCK (nM) (7 Hz, Automated Patchclamp)",15000 nM
same,IC50,"[2]; initial pulse (P1), read-out: Nav1.7 IC50 P1 BLOCK (nM) (Automated Patchclamp)",15000 nM
same,IC50,"[2]; slow inactivated state, read-out: Nav1.7 IC50 SLOW INACTIVATION BLOCK (nM) (Automated Patchclamp)",15000 nM
"NCC1(CC(=O)O)CCCCC1 [Gabapentin, reference compound]",Phase 1 paw flinches,[1]; [6],320 ± 58
same,Total Phase 2 paw flinches,[1]; [6],562 ± 213
same,Phase 2a paw flinches,[1]; [6],486 ± 202
same,Phase 2b paw flinches,[1]; [6],77 ± 47

# Source: patent US10208023B2, “Heterocyclic inhibitors of the sodium channel” (priority 2013, dated 2019)
